Source: PubChem BioAssay AID248 (DTP/NCI, 2004)
Toxic doses and inconclusive results are not listed. Rule as the data show it: active = T/C of 150% or more; inactive = T/C below 125%.

System: L1210 leukemia ip in BDF1 mice, survival T/C
Test: NCI In Vivo Anticancer Drug Screen. Data for tumor model L1210 Leukemia (intraperitoneal) in B6D2F1 (BDF1) mice
Conditions: endpoint: mean survival time, higher = longer survival
Method in brief: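 Mice bearing the transplanted tumor received compound or vehicle. Survival of the treated group was divided by that of the vehicle-treated control group to give the ratio.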

[1] = dose: 50.0 mg/kg/injection, schedule: Q04DX003 (ip), vehicle: Klucel (hydroxypropylcellulose) (HPC)
[2] = dose: 100.0 mg/kg/injection, schedule: Q04DX003 (ip), vehicle: Klucel (hydroxypropylcellulose) (HPC)
[3] = dose: 200.0 mg/kg/injection, schedule: Q04DX003 (ip), vehicle: Klucel (hydroxypropylcellulose) (HPC)
[4] = dose: 100.0 mg/kg/injection, schedule: Q01DX001 (ip), vehicle: saline
[5] = dose: 200.0 mg/kg/injection, schedule: Q01DX001 (ip), vehicle: saline
[6] = dose: 400.0 mg/kg/injection, schedule: Q01DX001 (ip), vehicle: saline
[7] = dose: 100.0 mg/kg/injection, schedule: Q04DX003 (ip), vehicle: saline with Tween-80
[8] = dose: 200.0 mg/kg/injection, schedule: Q04DX003 (ip), vehicle: saline with Tween-80
[9] = dose: 100.0 mg/kg/injection, schedule: Q01DX001 (ip), vehicle: saline with Tween-80
[10] = dose: 100.0 mg/kg/injection, schedule: Q01DX001 (ip), vehicle: Klucel (hydroxypropylcellulose) (HPC)
[11] = dose: 200.0 mg/kg/injection, schedule: Q01DX001 (ip), vehicle: Klucel (hydroxypropylcellulose) (HPC)
[12] = dose: 100.0 mg/kg/injection, schedule: Q01DX001 (ip), vehicle: carboxymethylcellulose (CMC)
[13] = dose: 200.0 mg/kg/injection, schedule: Q01DX001 (ip), vehicle: carboxymethylcellulose (CMC)
[14] = dose: 400.0 mg/kg/injection, schedule: Q01DX001 (ip), vehicle: carboxymethylcellulose (CMC)
[15] = dose: 12.5 mg/kg/injection, schedule: Q04DX003 (ip), vehicle: Klucel (hydroxypropylcellulose) (HPC)
[16] = dose: 200.0 mg/kg/injection, schedule: Q01DX001 (ip), vehicle: saline with Tween-80
[17] = dose: 400.0 mg/kg/injection, schedule: Q01DX001 (ip), vehicle: saline with Tween-80

Measured: T/C

O=C(O)C1CC(c2ccccc2)C(=O)O1 (stereo unspecified)
inactive: dose: 100.0 mg/kg/injection, schedule: Q04DX002 (ip), vehicle: Klucel (hydroxypropylcellulose) (HPC) 100 % of control | dose: 200.0 mg/kg/injection, schedule: Q04DX002 (ip), vehicle: Klucel (hydroxypropylcellulose) (HPC) 100 % of control | dose: 400.0 mg/kg/injection, schedule: Q04DX002 (ip), vehicle: Klucel (hydroxypropylcellulose) (HPC) 96 % of control

c1ccc([As](C[As](c2ccccc2)c2ccccc2)c2ccccc2)cc1
inactive: [1] 91 % of control | [2] 97 % of control | [3] 96 % of control | dose: 400.0 mg/kg/injection, schedule: Q04DX003 (ip), vehicle: Klucel (hydroxypropylcellulose) (HPC) 92 % of control

CCCNC(=O)/C=C\C(=O)O
inactive: [4] 108 % of control | dose: 100.0 mg/kg/injection, schedule: Q01DX009 (ip), vehicle: saline 93 % of control | [5] 101 % of control | dose: 200.0 mg/kg/injection, schedule: Q01DX009 (ip), vehicle: saline 90 % of control | [6] 106 % of control | dose: 400.0 mg/kg/injection, schedule: Q01DX009 (ip), vehicle: saline 95 % of control

COc1ccc(C(CCCC(=O)O)c2ccc(OC)cc2)cc1
inactive: [4] 112 % of control | [5] 104 % of control | [6] 104 % of control

CC1CCCCN1P(c1ccccc1)N1CCCCC1C (stereo unspecified)
inactive: dose: 100.0 mg/kg/injection, schedule: Q04DX002 (sc), vehicle: olive oil, sesame oil, peanut oil 97 % of control | dose: 200.0 mg/kg/injection, schedule: Q04DX002 (sc), vehicle: olive oil, sesame oil, peanut oil 113 % of control | dose: 400.0 mg/kg/injection, schedule: Q04DX002 (sc), vehicle: olive oil, sesame oil, peanut oil 107 % of control

Cc1ccc(NC(=O)Oc2ccc3ccccc3c2)cc1NC(=O)Oc1ccc2ccccc2c1
inactive: dose: 100.0 mg/kg/injection, schedule: Q01DX009 (ip), vehicle: other 91 % of control | dose: 200.0 mg/kg/injection, schedule: Q01DX009 (ip), vehicle: other 93 % of control | dose: 400.0 mg/kg/injection, schedule: Q01DX009 (ip), vehicle: other 91 % of control

CCC(=O)c1ccc(OCC(O)CN2CCN(c3ccccc3OC)CC2)cc1 (stereo unspecified)
inactive: [7] 96 % of control | [8] 96 % of control | dose: 400.0 mg/kg/injection, schedule: Q04DX003 (ip), vehicle: saline with Tween-80 103 % of control

CC(C)CCCC(C)C1CCC2C3CCC4CC(N5CCCC5)=CCC4(C)C3CCC12C (stereo unspecified)
inactive: dose: 75.0 mg/kg/injection, schedule: Q04DX003 (sc), vehicle: steriod suspending solution 96 % of control | dose: 150.0 mg/kg/injection, schedule: Q04DX003 (sc), vehicle: steriod suspending solution 96 % of control | dose: 300.0 mg/kg/injection, schedule: Q04DX003 (sc), vehicle: steriod suspending solution 102 % of control

COc1cc2nc(/C=C/c3nc4cc(OC)c(OC)cc4[nH]3)[nH]c2cc1OC
inactive: dose: 25.0 mg/kg/injection, schedule: Q01DX001 (ip), vehicle: saline with Tween-80 100 % of control | dose: 50.0 mg/kg/injection, schedule: Q01DX001 (ip), vehicle: saline with Tween-80 100 % of control | [9] 94 % of control

CC(=O)Nc1ccc(N=Nc2ccccc2)cc1
inactive: [10] 100 % of control | [11] 100 % of control | dose: 400.0 mg/kg/injection, schedule: Q01DX001 (ip), vehicle: Klucel (hydroxypropylcellulose) (HPC) 96 % of control

O=C(Nc1ccc([N+](=O)[O-])cc1)N1CCCCC1
inactive: [4] 95 % of control | [5] 95 % of control | [6] 97 % of control

S=P(NCCCCCCCNP(=S)(N1CC1)N1CC1)(N1CC1)N1CC1
inactive: [12] 106 % of control | [13] 98 % of control | [14] 104 % of control

NC(=O)NCO
inactive: dose: 100.0 mg/kg/injection, schedule: Q04DX002 (ip), vehicle: saline with Tween-80 94 % of control | dose: 200.0 mg/kg/injection, schedule: Q04DX002 (ip), vehicle: saline with Tween-80 94 % of control | dose: 400.0 mg/kg/injection, schedule: Q04DX002 (ip), vehicle: saline with Tween-80 90 % of control

Cc1cccc(C[P+](C/C=C/c2ccccc2)(c2ccccc2)c2ccccc2)c1
inactive: dose: 6.25 mg/kg/injection, schedule: Q04DX003 (ip), vehicle: Klucel (hydroxypropylcellulose) (HPC) 92 % of control | [15] 92 % of control

CCN(CC(=O)O)CC(=O)O
inactive: [4] 93 % of control | [5] 112 % of control | [6] 96 % of control

CC(Cl)(Cl)CC(O)(C(F)(F)F)C(F)(F)F
inactive: dose: 50.0 mg/kg/injection, schedule: Q04DX003 (ip), vehicle: saline with Tween-80 95 % of control | [7] 105 % of control | [8] 91 % of control

CS(=O)(=O)Nc1cc(Cl)c(NS(C)(=O)=O)c(Cl)c1Cl
inactive: [9] 101 % of control | [16] 96 % of control | [17] 107 % of control

COc1ccc(OC)c(NC(=O)N(CCC#N)C2CCCCC2)c1
inactive: [2] 91 % of control | [3] 91 % of control

N#CCCCCC(=O)c1ccc(O)cc1O
inactive: dose: 50.0 mg/kg/injection, schedule: Q01DX001 (ip), vehicle: Klucel (hydroxypropylcellulose) (HPC) 97 % of control | [10] 105 % of control | [11] 101 % of control

CCCCN(CC)CC#N
inactive: dose: 6.25 mg/kg/injection, schedule: Q01DX009 (ip), vehicle: saline 104 % of control | dose: 12.5 mg/kg/injection, schedule: Q01DX009 (ip), vehicle: saline 101 % of control | dose: 12.5 mg/kg/injection, schedule: Q04DX003 (ip), vehicle: saline 94 % of control | dose: 25.0 mg/kg/injection, schedule: Q01DX009 (ip), vehicle: saline 93 % of control | dose: 25.0 mg/kg/injection, schedule: Q04DX003 (ip), vehicle: saline 89 % of control

CN=C(N)c1ccc(N=C(N)c2ccc(N=C(N)c3ccc(C(N)=NC)cc3)cc2)cc1
inactive: dose: 3.7 mg/kg/injection, schedule: Q01DX001 (ip), vehicle: water 108 % of control | dose: 5.3 mg/kg/injection, schedule: Q01DX001 (ip), vehicle: water 103 % of control | dose: 8.0 mg/kg/injection, schedule: Q01DX001 (ip), vehicle: water 102 % of control | dose: 12.0 mg/kg/injection, schedule: Q01DX001 (ip), vehicle: water 108 % of control

O=C(O)c1ccc2c(ccc3ccc4ccccc4c32)c1
inactive: [15] 100 % of control | dose: 25.0 mg/kg/injection, schedule: Q04DX003 (ip), vehicle: Klucel (hydroxypropylcellulose) (HPC) 89 % of control | [1] 96 % of control | [2] 97 % of control | [3] 106 % of control

O=C(/C=C(\C(=O)c1ccccc1)c1ccccc1)c1ccccc1
inactive: [1] 95 % of control | [4] 92 % of control | dose: 100.0 mg/kg/injection, schedule: Q01DX009 (ip), vehicle: Klucel (hydroxypropylcellulose) (HPC) 95 % of control | [2] 101 % of control | [16] 90 % of control | [5] 95 % of control | dose: 200.0 mg/kg/injection, schedule: Q01DX009 (ip), vehicle: Klucel (hydroxypropylcellulose) (HPC) 102 % of control | [3] 102 % of control | dose: 400.0 mg/kg/injection, schedule: Q01DX009 (ip), vehicle: Klucel (hydroxypropylcellulose) (HPC) 98 % of control

CN(C)c1ncccc1O
inactive: [4] 95 % of control | [5] 101 % of control | [6] 106 % of control

O=C(CCC(=O)Nc1ccccc1)Nc1ccccc1
inactive: [12] 96 % of control | [13] 102 % of control | [14] 102 % of control

CC(=O)c1cccnc1
inactive: dose: 50.0 mg/kg/injection, schedule: Q01DX001 (ip), vehicle: saline 104 % of control | [4] 91 % of control | [5] 93 % of control

CC1=C(N2CCCC2)CCCC1=O
inactive: dose: 100.0 mg/kg/injection, schedule: Q04DX002 (ip), vehicle: saline 112 % of control | dose: 200.0 mg/kg/injection, schedule: Q04DX002 (ip), vehicle: saline 107 % of control

Cc1ccc(C(=O)NCc2ccc(CCc3nc(N)nc(N)c3-c3ccc(Cl)c(Cl)c3)cc2)cc1S(=O)(=O)F
inactive: [9] 100 % of control | [16] 110 % of control | [17] 114 % of control
